How the values were obtained:
[1] = test system: blood lymphocytes from NSCLC patients and healthy volunteers; assay: Spontaneous UCP-specific T cell responses, IFN-γ ELISPOT after one week stimulation; type: cell-based, human; details: frequency of T cell responses
HLA-DR DR13 = assay: HLA-DR binding assay, competitive ELISA; set-up: species or system human; details: means of three experiments
Protocol: (§1) Synthetic peptides (>80% purity) were purchased from Activotec (Cambridge, United Kingdom). The binding capacity to HLA-DR molecules was assessed by competitive ELISA as previously reported (Wang et al).
(§2) To predict the existence of CD4 epitopes within the amino acid sequence of TERT capable of binding to multiple HLA-DR molecules, the inventors have combined results from three algorithms Syfpeithi, NetMHCpan-2.1 and NetMHC2.2. They have selected four 15-mers peptide sequences referred as UCP1 to UCP4 that scored high in the probability scale for their binding capacity to the commonly found human HLA-DR alleles (Table 1). […] Data are expressed as relative activity RA (ratio of the IC50 of UCPs to the IC50 of the reference peptide) and are the means of three experiments. Good binders have a […] and weak binder are […].

HLA-DR DR3 = assay: HLA-DR binding assay, competitive ELISA; set-up: species or system human; details: means of three experiments
Protocol: as §1, §2

[2] = test system: UCP-specific CD4 T cell clones; assay: TNF secretion of UCP-specific CD4 T cell clones from cancer patient, flow cytometry; type: cell-based, human; details: CD4 T cell clones with cognate peptide, 5 h, Brefeldin A; read-out: peptide concentration at half-maximal TNF secretion
Protocol: T cell clones were obtained by limiting dilution of cancer patients T cell lines stimulated one time with the pool of UCPs. (2A and 2C) Percentage of TNF-producing T cells and of T cell clones isolated from patients GE001 in response to 10 μM of the relevant UCP; 10^5 T cells were incubated for 5 h in the presence of Brefeldin A, stained with CD4 antibody, fixed, and stained with anti-TNF antibody in a permeabilization buffer; 10^4 T cells were then analyzed in flow cytometry. (2B and 2D) Reactivity of the CD4 T cell clones in response to relevant UCP. CD4 T cell clones were culture with a range of the indicated peptide concentration. TNF secretion was assessed 5 h in the presence of Brefeldin A, by flow cytometry. (2E) Detection of cytokines produced by GE001.36 T cell clone in response to 10 μM of UCP4 using human ten-plex cytokines assay. […]
For intracytoplasmic cytokine staining, after a 5-h stimulation period with or without 10 μM peptide, T cells were labeled with anti-CD4 (BD Bioscience, USA) and anti-TNF-α (ebioscience, USA) using Cytofix/Cytoperm KIT (BD Bioscience). […] Samples were acquired on a FACS Canto II (BD Biosciences) and analyzed with the DIVA software. […]

CD4 T cells [3] = assay: Ex vivo IFN-γ ELISPOT of CD8 depleted spleen lymphocytes from TERT DNA-immunized mice; type: in vivo, A2/DR1 mice; details: mice immunized with DNA encoding TERT
Protocol: (5A-5B), A2/DR1 mice (n=8) were immunized twice with a DNA encoding TERT.
(5B), CD8 depleted spleen lymphocytes from DNA-immunized mice were assayed in ex vivo IFN-γ ELISPOT. Columns mean of triplicate from 4 mice; bars, SD.
To study the processing of UCP, A2/DR1 mice were immunized with a pTrip-TERT DNA (100 μg) at days 0 and 14 as previously reported (Adotevi et al, 2010). In some experiment CD4 T cells were depleted with anti-CD4 mAb treatment (clone GK1.5) prior DNA immunization. For UCP immunization, mice were injected with 100 μg of each UCP emulsified in incomplete Freund adjuvant (IFA, Sigma-Aldrich, France). In some experiments, 50 μg of pY988 peptide was co-injected with 100 μg of each UCP in IFA. All peptide vaccinations were done subcutaneously (s.c) at the right abdominal flank. Eight to ten week-old mice were bred and maintained in our animal facilities. All experiments were done according to the good laboratory practices defined by animal experimentation rules in France.
Ex vivo pentamer staining was performed as previously described (Adotevi et al, 2010; Adotevi et al, 2006). Cells were stained with PE-conjugated pY988 and pY572 HLA-A2.1 pentamer (ProImmune, UK). After cell staining, samples were analyzed by flow cytometry on a FACS Canto II (BD Biosciences, France) and using Diva software. […]
The inventors and others have previously reported that the use of humanized HLA transgenic mice models to screen for human tumor antigens represents a potent alternative to optimize “reverse immunology” approaches for epitope identification (Adotevi et al, 2006; Osen et al, 2010). […] To assess whether UCPs can be endogenously processed from the TERT protein, the inventors performed immunizations with a plasmid DNA encoding the full length TERT sequence and the UCP-specific CD4 splenocytes were monitored by a five-day 3H-thymidine incorporation assay. […] To this end, freshly isolated CD4 T cells from UCP-vaccinated mice were cultured in the presence of syngenic iDC pulsed or not with UCP and cytokines production was measured.

HLA-DR DRB4 = HLA-DR DRB4 (Homo sapiens, UniProt P01903+P13762); assay: HLA-DR binding assay, competitive ELISA; details: means of three experiments
Protocol: as §1, §2

HLA-DR DR11 = assay: HLA-DR binding assay, competitive ELISA; set-up: species or system human; details: means of three experiments
HLA-DR molecules = assay: HLA-DR binding assay, competitive ELISA, summary over the alleles tested; set-up: species or system human; details: RA intermediate 100-500, low <100
Protocol: as §1, §2
Thus, according to phenotypic frequencies of the 10 prevalent HLA-DR antigens, these peptides could cover more than 90% of population (Wang et al).

[4] = test system: pY988-specific CD8 T cells; assay: Co-immunization pY988 plus UCP: pY988-specific CTL response by pentamer staining and IFN-γ ELISPOT; type: in vivo, A2/DR1 mice; details: pY988 plus UCP in IFA versus pY988/IFA alone, day 10, spleen
Text: Mice (3/group) were immunized either with pY988 plus each UCP in IFA or with pY988/IFA alone and the immune responses were monitored ten days later in the spleen. 6A, freshly isolated CD8 T cells were stained with TERT pY988/A2+ pentamer. Representative flow cytometry dot plots (upper panel) and mean percentages of pY988/A2+ CD8 T cells (lower panel) are shown.
6B, Ex vivo detection of anti-pY988 CD8 T cells by IFN-γ ELISPOT.
(§3) To study the processing of UCP, A2/DR1 mice were immunized with a pTrip-TERT DNA (100 μg) at days 0 and 14 as previously reported (Adotevi et al, 2010). In some experiment CD4 T cells were depleted with anti-CD4 mAb treatment (clone GK1.5) prior DNA immunization. For UCP immunization, mice were injected with 100 μg of each UCP emulsified in incomplete Freund adjuvant (IFA, Sigma-Aldrich, France). In some experiments, 50 μg of pY988 peptide was co-injected with 100 μg of each UCP in IFA. […]
(§4) Ex vivo pentamer staining was performed as previously described (Adotevi et al, 2010; Adotevi et al, 2006). […] After cell staining, samples were analyzed by flow cytometry on a FACS Canto II (BD Biosciences, France) and using Diva software. […]
CD4 T cell helper functions are thought to be important for the generation of potent and sustained CTL responses (Shedlock et al, 2003). […] The pY988-specific CTL response was measured ex vivo by pentamer staining and ELISPOT assays. […]

CD4 T cells [5] = assay: Avidity of UCP-specific CD4 T cells from UCP-immunized mice, IFN-γ ELISPOT; type: in vivo, A2/DR1 mice; details: vaccinated once, ~1 μg peptide
Protocol: (5C-5D), Mice (3-4/group) were immunized once with each UCP in IFA.
(5D), Isolated CD4 T cells were cultured ex vivo with increasing concentrations of peptide as indicated. IFN-γ production was measured by ELISPOT. Curves, mean responses from 3 mice, bars, SD.
(5E), Mice were vaccinated once with low dose of UCP as indicated. UCP-specific T cell responses were evaluated in spleen by ex vivo IFN-γ ELISPOT.
as §3, §4
Next, to assess the avidity of UCP-specific CD4 T cell, freshly purified CD4 T cells from UCP-immunized mice were cultured in the presence of increasing concentrations of peptide and the number of specific IFN-γ producing CD4 T cells was measured by ELISPOT. […]

[6] = test system: immature bone marrow-derived DCs; assay: In vitro DC-CD4 T cell co-culture; type: cell-based, A2/DR1 mice; details: CD4 T cells from UCP2/IFA versus IFA injected mice
Protocol: 8B, Schema of the in vitro DC-CD4 T cell co-culture.
8C, IFN-γ and GM-CSF production measured by ELISA in the supernatant.
8D, Expression of CD86 and HLA-DR on CD11c+ DC.
8E, Interleukin 12 production measured in supernatant by ELISA.
Spleen or lymph nodes CD11c+ DCs from peptide-immunized mice were directly analyzed for co-stimulatory receptor expression. In some experiments, immature bone marrow-derived DCs (iDC) from A2/DR1 mice were cultured 15-h with CD4 T cells from mice immunized with UCP or IFA alone and then stained for cell surface expression of co-stimulatory receptors and cytokines production.
The induction of dendritic cell activation represents one major helper mechanism used by CD4+ Th1 cells to sustain antigen presentation and provide costimulatory signals to the CTLs. This is referred as the “ménage à trois” model (Ridge et al, 1998). To test this mechanism, the inventors have analyzed the expression of co-stimulating receptors on DCs from mice immunized with the mix of pY988+/−UCP2. […] In a second set of experiments, isolated CD4 T cells from UCP2/IFA or IFA injected mice were co-cultured with syngenic iDCs as shown in FIG. 8B. As expected, UCP2-specific CD4 T cells produced significant amounts of Th1 cytokines such as IFN-γ and GM-CSF (FIG. 8C).

| Relative affinity RA (ratio of the IC50 of UCPs to the IC50 of the reference peptide) (HLA-DR DR13) | Relative affinity RA (ratio of the IC50 of UCPs to the IC50 of the reference peptide) (HLA-DR DR3) | EC50 [2] [µM] | Relative affinity RA (ratio of the IC50 of UCPs to the IC50 of the reference peptide) (HLA-DR DRB4) | Relative affinity RA (ratio of the IC50 of UCPs to the IC50 of the reference peptide) (HLA-DR DR11) | Sequence | CD4 T cell responses to individual UCPs [1] | specific CD4 T cell responses detected (CD4 T cells [3]) | capacity to bind HLA-DR molecules (HLA-DR molecules) | frequency of pY988/A2 pentamer+ CD8 T cells [4] | IFN-γ+ CD4 T cells after low dose vaccination (CD4 T cells [5]) | DC activation and interleukin-12 production in presence of UCP2-specific CD4 T cells [6] |
| --- | --- | --- | --- | --- | --- | --- | --- | --- | --- | --- | --- |
| >500 | >500 | < 0.1 | >500 | 0,3 | SLCYSILKAKNAGMS [UCP4, universal cancer peptide derived from TERT, 15-mer] | more immunogenic | in all immunized mice |  |  |  |  |
|  | 0.4 |  |  | 25 | PAAFRALVAQCLVCV (listed as Homo sapiens) [UCP1, universal cancer peptide derived from TERT, 15-mer] |  |  | able to bind every HLA-DR molecules tested | little impact |  |  |
|  |  |  |  |  | GTAFVQMPAHGLFPW [UCP3] |  | in all immunized mice |  |  | stimulated potent IFN-γ+ CD4 T cells |  |
|  |  | ~4 |  |  | KSVWSKLQSIGIRQH [UCP2, universal cancer peptide derived from TERT, 15-mer] | more immunogenic | in all immunized mice | able to bind every HLA-DR molecules tested |  | stimulated potent IFN-γ+ CD4 T cells | induced potent DCs activation |

— patent US10695409B2, “Universal cancer peptides derived from telomerase” (INVECTYS, priority 2012, dated 2020)
